What was measured:
[1] = tested on: MOG35-55-induced EAE mouse spinal cord; assay: EAE mouse model, spinal cord H&E and LFB pathological scoring; type: in vivo, C57BL/6 mice; conditions: day 28
Method: For each group consisting of 5 mice, euthanasia was performed followed by cardiac perfusion with saline. Subsequently, an equal volume of 10% formalin was perfused. Spinal cord tissues from the mice were collected, soaked in […], and then sectioned. Hematoxylin & Eosin (H&E) staining and Luxol Fast Blue (LFB) staining were performed, along with pathological scoring.
At the end of the experiment, the spinal cords of mice were collected, with 2 in the normal control group and 5 in each of the remaining groups. The spinal cords were fixed in formalin, followed by paraffin embedding and sectioning. Two sections were taken from each mouse and subjected to H&E and FLB staining for pathological observation. Scoring was done for cell infiltration, lesion areas, and demyelination. […] Specifically, after H&E staining of the mouse spinal cord, cell infiltration (A) and lesion area (B) in the spinal cord sections were counted. After LFB staining, the degree of demyelination (C) in the spinal cord sections was scored. Data were presented as mean±standard error of the mean (mean±SEM). *p<0.05, **p<0.01, ***p<0.001, ****p<0.0001, vs. vehicle control group (Vehicle), one-way ANOVA.

[2] = tested on: IL-6-induced pSTAT1 in hPBMC; assay: IL-6-induced pSTAT1 in hPBMC (flow cytometry, CD4 positive cells); type: cell-based; conditions: Homo sapiens, 10 ng/mL IL-6, CD4 positive cells
Method: • 1) Preparation of culture medium: 1640 medium+10% fetal bovine serum+1% penicillin/streptomycin+1% non-essential amino acids (all percentages were v/v) • 2) Cells were thawed in a 37° C. water bath and then centrifuged. The cell concentration was adjusted to 5×10^5 cells/mL using the prepared culture medium. • 3) Cell suspension was seeded into a 96-well round-bottom plate at 200 μL/well and incubated at 37° C. for 90 minutes. • 4) Drugs were added, followed by a 37° C. incubation for 30 minutes. • 5) Cells were then stimulated by adding 10 ng/mL of IL-6 or 4 ng/mL of IL-2, followed by a 37° C. incubation for 15 minutes.
• 1) After completing the stimulation, cells were centrifuged and washed once with staining buffer (DPBS+2% bovine serum albumin). Antibodies were then added for a 30-minute staining process at 4° C. […]
• 1) Response %=[(MFI value of drug-treated well−mean MFI value of control well)/(mean MFI value of DMSO well−mean MFI value of control well)]*100% was calculated. • 2) The calculated Response % values were input into GraphPad Prism 8 software. […]

CN(c1ncnc2[nH]ccc12)[C@@H]1CCc2cc(C#N)nn2C1 [Compound I]
cell infiltration, lesion area and demyelination compared with Fingolimod ([1]; 10 mg/kg BID): significantly better therapeutic effect than the positive drug Fingolimod group | damage to the spinal cord caused by EAE modeling ([1]; all doses (3, 10, 20 mg/kg BID, 20 mg/kg QD)): significantly inhibited the damage to the spinal cord | IC50 [2]: 73.1 nM
